Where a name gives a salt, the structure may show the parent alone.
system: Dog platelet aggregation (platelet-rich plasma); assay: In-Vitro Platelet Aggregation in PRP (Dog), collagen-induced; type: cell-based; settings: Canis lupus familiaris, @ 1 μM, collagen-induced aggregation
Protocol: In-Vitro Platelet Aggregation in PRP--(Dog)
Healthy male or female dogs were fasted for 8 hours prior to drawing blood; then 60 ml whole blood was collected using a butterfly needle and 30 cc plastic syringe with 6 ml of 0.129M buffered sodium citrate (3.8%) (drawn from a minimum of 3 dogs and blood was pooled). The syringe was rotated carefully as blood was drawn to mix the citrate. Platelet-rich plasma (PRP) was prepared by centrifugation at 975×g for 3.17 minutes at room temperature, allowing the centrifuge to coast to a stop without braking. The PRP was removed from the blood with a plastic pipette and placed in a plastic capped 50 ml Corning conical sterile centrifuge tube which was held at room temperature. Platelet poor plasma (PPP) was prepared by centrifuging the remaining blood at 2000×g for 15 minutes at room temperature allowing the centrifuge to coast to a stop without braking. The platelet count in the PRP was routinely 2-4×10^8 platelets per ml. 400 μl of the PRP preparation and 50 μl of the compound to be tested or saline were preincubated for 2 minutes at 37° C. in a BioData aggregometer (BioData, Horsham, Pa.). 50 μl of collagen (diluted 1:3 with 5% dextrose and water solution, 33 μg/ml final concentration, equine tendon, Chronolog, Havertown, Pa.) was added to the cuvettes and the aggregation was monitored for 3 minutes. All compounds are tested in duplicate.
Results are calculated as follows:
Percent of control=[(maximal OD minus initial OD of compound) divided by (maximal OD minus initial OD of control saline)]×100. The % inhibition=100-(percent of control).
(NT in the following table indicates not tested.)

| Compound | inhibition at 1 µM |
| --- | --- |
| C=C[C@H](CC(=O)O)NC(=O)CC1CCCN(c2ccc(C(=N)N)cc2)C1=O (single isomer, unassigned; isomer a) [Example 34J] | 13% |

same assay, conditions: Canis lupus familiaris, Platelet, collagen-induced aggregation (33 μg/ml final), 37° C.

| Compound | IC50 |
| --- | --- |
| N=C(N)c1ccc(N2CCCC(CC(=O)NC(CC(=O)O)c3ccco3)C2=O)cc1 (mixture of isomers) [Example 34G, 3-[[[1-[4-(aminoiminomethyl)phenyl]2-oxo-3-piperidinyl]acetyl]amino]-3-(2-furanyl]propanoic acid, diastereomers] | 190 nM |
| N=C(N)c1ccc(N2CCC(CC(=O)NC(CC(=O)O)c3ccoc3)C2=O)cc1 (single isomer, unassigned) [Example 51] | 50 nM |
| N=C(N)c1ccc(N2CCCC(CC(=O)NCCC(=O)O)C2=O)cc1 (single isomer, unassigned; isomer b) [Example 34B, 3-[[[1-[4-(aminoiminomethyl)phenyl]-2-oxo-3-piperidinyl]acetyl]amino]propanoic acid, enantiomerically enriched isomer B] | 240 nM |
| N=C(N)c1ccc(N2CCCC(CC(=O)NC(CC(=O)O)c3ccsc3)C2=O)cc1 (single isomer, unassigned; isomer b) [Example 34C, 3-[[[1-[4-(aminoiminomethyl)phenyl]-2-oxo-3-piperidinyl]acetyl]amino]-3-(3-thienyl)propanoic acid, enantiomerically enriched isomer B] | 160 nM |
| N=C(N)c1ccc(N2CCCC(CC(=O)NC(CC(=O)O)c3ccoc3)C2=O)cc1 (single isomer, unassigned; isomer b) [Example 34E] | 70 nM |
| C=C[C@H](CC(=O)O)NC(=O)CC1CCCN(c2ccc(C(=N)N)cc2)C1=O (single isomer, unassigned; isomer b) [Example 34L] | 59 nM |
| C#C[C@H](CC(=O)O)NC(=O)CC1CCCN(c2ccc(C(=N)N)cc2)C1=O (single isomer, unassigned; isomer b) [Example 34N] | 59 nM |
| N=C(N)c1ccc(N2CCC(NC(=O)NCCC(=O)O)C2=O)cc1 (single isomer, unassigned; isomer b) [Example 43, 3-[[[[1-[4-(aminoiminomethyl)phenyl]-2-oxo-3-pyrrolidinyl]amino]carbonyl]amino]propanoic acid trifluoroacetate. Enantiomerically Enriched Isomer B.] | 90 nM |
| C[C@H](CC(=O)O)NC(=O)NC1CCN(c2ccc(C(=N)N)cc2)C1=O (single isomer, unassigned; isomer b) [Example 45] | 39 nM |
| N=C(N)c1ccc(N2CCC(NC(=O)NC[C@H](NC(=O)OCc3ccccc3)C(=O)O)C2=O)cc1 (single isomer, unassigned; isomer b) [Example 49] | 54 nM |
| C=C[C@H](CC(=O)O)NC(=O)CC1CCN(c2ccc(C(=N)N)cc2)C1=O (stereo partly drawn) [Example 2, 3(S)-[[[1-[4-(aminoiminomethyl)phenyl]-2-oxo-3-pyrrolidinyl]acetyl]amino]-4-pentenoic acid, monohydrochloride] | 72 nM |
| C#C[C@H](CC(=O)O)NC(=O)CC1CCN(c2ccc(C(=N)N)cc2)C1=O (stereo partly drawn) [Example 14, 3(S) -[[[1-[4-(aminoiminomethyl)phenyl]-2-oxo-3-pyrrolidinyl]acetyl]amino]-4-pentynoic acid] | 120 nM |
| C[Si](C)(C)C#C[C@H](CC(=O)O)NC(=O)CC1CCCN(c2ccc(C(=N)N)cc2)C1=O (stereo partly drawn) [Example 22, 3S-[[[1-[4-(aminoiminomethyl)phenyl]-2-oxo-3-piperidinyl]acetyl]amino]-5-(trimethylsilyl)-4-pentynoic acid] | 180 nM |
| C#CC(CC(=O)O)NC(=O)CC1CCCN(c2ccc(C(=N)N)cc2)C1=O (stereo not shown) [Example 24, 3-[[[1-[4-(aminoiminomethyl)phenyl]-2-oxo-3-piperidinyl]acetyl]amino]-4-pentynoic acid.] | 190 nM |

same assay, conditions: collagen-induced aggregation (33 μg/ml final), 37° C.

| Compound | IC50 |
| --- | --- |
| 3[S]-[[[[1-[4-(aminoiminomethyl)phenyl]-2-oxo-3-pyrrolidinyl]amino]carbonyl]amino]benzenepropanoic acid trifluoroacetate. Enantiomerically Enriched Isomer B [Example 47] | 62 nM |
